Values of other authors as cited in patent US11844836B2, “Topical pharmaceutical composition based on semifluorinated alkanes” (DERMALIQ THERAPEUTICS, INC., priority 2011, dated 2023).

Details: testosterone as model drug; pig skin; Hardung, Doctoral Thesis 2008, p. 103

SMILES: CCCCCCCCC(F)(F)C(F)(F)C(F)(F)C(F)(F)C(F)(F)C(F)(F)F [F6H8]
- penetration-enhancing effect of the SFA carrier: does not affect an improved penetration into the skin
